Patent publication US20010018956A1, “Multi-component system for modifying, degrading or bleaching lignin, lignin-containing materials or similar substances and processes for its use” (CONSORTIUM FUR ELEKTROCHEMISCHE INDUSTRIE GmbH, priority 1996, published 2001)

Assay: Enzymatic bleaching of softwood sulfate pulp with laccase and mediator; kappa number determined after NaOH extraction
Conditions: laccase from Trametes versicolor 15 U/g of pulp; incubation time 2 hours; pH 4.5; 45° C.; oxygen pressure 1-10 bar; mediator dosage per 5 g of pulp as in table
Protocol: 5 g of bone-dry pulp (softwood O2 delignified), pulp consistency 30% (about 17 g moist) are added to the following solutions:
A) 56.5 mg of N-hydroxyacetanilide are added to 20 ml of tap water, while stirring, and the pH is adjusted with 0.5 mol/l of H2SO4 solution such that pH 4.5 results after addition of the pulp and the enzyme.
B) An amount of laccase from Trametes versicolor is added to 5 ml of tap water such that an activity of 15 U (1 U=conversion of 1 μmol of ABTS/minute/ml of enzyme) per g of pulp results.
Solutions A and B are brought together and topped up to 33 ml. After addition of the pulp, the mixture is mixed with a dough kneader for 2 minutes.
The pulp is then introduced into a reaction bomb preheated to 45° C. and incubated under an increased oxygen pressure of 1-10 bar for 1-4 hours.
Thereafter, the pulp is washed over a nylon screen (30 gm) and extracted for 1 hour at 60° C. at a pulp consistency of 2% with 8% of NaOH per g of pulp.
After renewed washing of the pulp, the kappa number is determined.

SMILES	Ligin degradation
CC(=O)N(O)c1ccc(C#N)cc1 [N-hydroxy-4-cyanoacetanilide]	35.6%
O=C(Oc1ccccc1)N(O)c1ccccc1 [Phenyl N-hydroxy-N-phenylcarbamate]	20.0%
